Laboratory results as given in paper PMC11882969 (Nature Communications, 2025).
Several values for one entry are separate records, joined by “and”; a condition that tells them apart may be missing. Equal entries are not always repeated.

Tests used:
mice [1] = assay: Hot plate, 52 °C; format: in vivo, mouse
[2] = Pharmacokinetics: plasma, brain, CSF; conditions: for concentration at 1 min / concentration at 5 min / concentration at 15 min / concentration at 30 min / concentration at 60 min / concentration at 120 min / concentration at 240 min / concentration at 360 min / concentration at 480 min: intraperitoneal
mice [3] = assay: Acetone test, cold allodynia after spared nerve injury; format: in vivo, mouse
Method: Mice were placed on a wire mesh and thirty min after an i.p. injection of the compounds we applied a drop (50 μL) of acetone on the ventral aspect of the hindpaw, 5 times every 30 sec. We recorded the number of nocifensive behaviors (paw lifts/licks/shakes/bites) over the 5 applications.

hCB2 = hCB2 (Homo sapiens, UniProt P34972); assay: Radioligand competition binding, HEK293 cells expressing human CB2R; design: expressed in transfected cells; host or cells: HEK293 cells stably expressing human CB2R (Laboratory of Ken Mackie); conditions: hCB2, log[drug], replicate columns
Chain of hCB2 (P34972 whole entry): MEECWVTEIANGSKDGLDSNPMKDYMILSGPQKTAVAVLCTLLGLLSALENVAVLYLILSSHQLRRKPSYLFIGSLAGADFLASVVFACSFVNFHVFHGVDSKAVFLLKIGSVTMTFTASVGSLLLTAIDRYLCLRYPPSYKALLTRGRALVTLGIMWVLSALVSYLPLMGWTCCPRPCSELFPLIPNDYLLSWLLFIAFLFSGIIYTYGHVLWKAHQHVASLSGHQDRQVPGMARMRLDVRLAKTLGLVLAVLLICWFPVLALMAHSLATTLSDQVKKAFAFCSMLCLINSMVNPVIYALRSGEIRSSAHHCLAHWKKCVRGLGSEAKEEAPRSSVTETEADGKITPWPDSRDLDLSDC

hCB1 = hCB1 (Homo sapiens, UniProt P21554); assay: Radioligand competition binding at hCB1; design: host or cells: HEK293SL cells, transient PEI transfection; conditions: for radioligand binding, competition curve point (normalized): log[drug]
Chain of hCB1 (P21554 whole entry): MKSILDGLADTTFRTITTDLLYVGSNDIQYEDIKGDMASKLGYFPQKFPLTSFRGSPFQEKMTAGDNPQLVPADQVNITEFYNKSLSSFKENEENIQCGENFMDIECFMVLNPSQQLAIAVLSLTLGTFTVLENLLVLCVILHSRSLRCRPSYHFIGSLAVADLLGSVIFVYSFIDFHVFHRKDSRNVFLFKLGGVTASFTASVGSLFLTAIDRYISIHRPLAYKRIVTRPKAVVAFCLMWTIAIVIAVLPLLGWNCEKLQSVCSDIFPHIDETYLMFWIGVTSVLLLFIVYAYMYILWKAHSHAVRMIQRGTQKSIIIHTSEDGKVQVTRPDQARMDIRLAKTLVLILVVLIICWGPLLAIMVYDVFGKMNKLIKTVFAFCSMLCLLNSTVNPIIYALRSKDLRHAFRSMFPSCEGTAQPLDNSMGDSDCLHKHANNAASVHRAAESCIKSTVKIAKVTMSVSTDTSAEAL

mice [4] = assay: Catalepsy test, vertical wire mesh; format: in vivo, mouse
Method: Thirty min after an i.p. injection of the compounds, mice were placed on a vertical wire mesh and the latency to move all four paws was recorded.

mice [5] = system: mice
Method: For all behavioral tests, the experimenter was always blind to treatment. Animals were first habituated for 30-60 min in Plexiglas cylinders and then tested 30 min after i.p. or i.t. injection of the compounds. The thermal (Hargreaves, hotplate and tail flick) and ambulatory (rotarod) tests were conducted as described[96]. Briefly, hindpaw thermal sensitivity was measured with a radiant heat source (Hargreaves) or on a hotplate at 52 °C. For the tail flick assay, sensitivity was measured by immersing the tail into a 50 °C water bath. For the ambulatory (rotarod) test, before testing with any compound, mice underwent three trainings on three consecutive days until they reach 300 sec. Each training has three sessions of five min each. Therapeutic window was calculated as the ratio of the minimum dose of side effect phenotype to the minimum dose of analgesic phenotype.

[6] = 0.2 mg/kg, individual animals, FigS11b
[7] = male, CD-1, mouse, CSF, 0.2 mg/kg
[8] = male, CD-1, mouse, brain, 0.2 mg/kg
[9] = male, CD-1, mouse, plasma, 0.2 mg/kg
[10] = male, CD-1, mouse, plasma, ip, 0.2 mg/kg

Cc1cc(C(=O)NC(C)(c2ccco2)c2ccco2)nn1-c1cccc(C(F)(F)F)c1 [‘4936]
Jump (mice [1]; [6]): 2 (2×) and 4 and 0 (2×)
Paw lick (mice [1]; [6]): 27 and 43 and 44 and 13 and 16
Paw shake (mice [1]; [6]): 12 (2×) and 25 and 5 and 6
Paw withdrawal (mice [1]; [6]): 24 (2×) and 13 and 23 and 8
hot plate response normalised to baseline (Figure4b), individual animals (mice [1]; Dose 0.05 mg/kg): 102.582 and 109.155 and 97.1831 and 135.446 and 112.911
hot plate response normalised to baseline (Figure4b), individual animals (mice [1]; Dose 0.1 mg/kg): 324.648 and 182.16 and 233.803 and 158.685 and 147.887 and 257.981 and 154.695 and 178.169 and 197.418 and 155.869
hot plate response normalised to baseline (Figure4b), individual animals (mice [1]; Dose 0.2 mg/kg): 174.413 and 176.291 and 188.028 and 167.84 and 94.8357 and 253.991 and 380.986 and 174.648 and 215.493 and 126.291
hot plate response normalised to baseline (Figure4b), individual animals (mice [1]; Dose 0.5 mg/kg): 308.685 and 139.202 and 403.052 and 315.493 and 134.742 and 404.695 and 140.141 and 141.549 and 236.62 and 416.667
lowest dose with significantly increased hot plate latency (mice [1]; i.p., 30 min after injection): 0.5 mg/kg
brain AUC0→inf ([2]; 0.2 mg/kg i.p., CD-1 mice): 5610 ng·min/mL
brain Cmax ([2]; 0.2 mg/kg i.p., CD-1 mice): 26.2 ng/g
level in CSF ([2]; 0.2 mg/kg i.p., CD-1 mice): but not CSF compartments
concentration at 1 min [2, 7]: 0 ng/mL
concentration at 5 min [2, 7]: 0 ng/mL
concentration at 15 min [2, 7]: 0 ng/mL
concentration at 30 min [2, 7]: 0 ng/mL
concentration at 60 min [2, 7]: 0 ng/mL
concentration at 120 min [2, 7]: 0 ng/mL
concentration at 240 min [2, 7]: 0 ng/mL
concentration at 360 min [2, 7]: 0 ng/mL
concentration at 480 min [2, 7]: 0 ng/mL
concentration at 1 min [2, 8]: 0 ng/g
concentration at 5 min [2, 8]: 2.39 ng/g
concentration at 15 min [2, 8]: 12 ng/g
concentration at 30 min [2, 8]: 25.2 ng/g
concentration at 60 min [2, 8]: 26.1 ng/g
concentration at 120 min [2, 8]: 17.9 ng/g
concentration at 240 min [2, 8]: 6.06 ng/g
concentration at 360 min [2, 8]: 7.4 ng/g
concentration at 480 min [2, 8]: 1.98 ng/g
half-life ([2]; male, CD-1, mouse, brain, ip, 0.2 mg/kg): 2.08 h
concentration at 1 min [2, 9]: 0 ng/mL
concentration at 5 min [2, 9]: 0.512 ng/mL
concentration at 15 min [2, 9]: 1.63 ng/mL
concentration at 30 min [2, 9]: 4.54 ng/mL
concentration at 60 min [2, 9]: 3.59 ng/mL
concentration at 120 min [2, 9]: 3.55 ng/mL
concentration at 240 min [2, 9]: 1.18 ng/mL
concentration at 360 min [2, 9]: 0.867 ng/mL
concentration at 480 min [2, 9]: 0 ng/mL
AUC(0-inf) [2, 10]: 14.4 ng·h/mL
Cmax [2, 10]: 4.5 ng/mL and 11 nM
acetone test response after spared nerve injury (Figure5b), individual animals (mice [3]; Dose 0.2 mg/kg): 92 and 82 and 36 and 30 and 65
effect on acetone-induced nocifensive behaviors (mice [3]; spared nerve injury, i.p.): strongly reduced spared nerve injury-induced cold allodynia
radioligand binding, competition curve point (normalized) (hCB2; M = -6.64345): 0.8301 and 3.196
radioligand binding, competition curve point (normalized) (hCB2; M = -7.35666): 5.0447 and 7.642
radioligand binding, competition curve point (normalized) (hCB2; M = -8.06987): 20.2107 and 22.6869
radioligand binding, competition curve point (normalized) (hCB2; M = -8.78308): 55.4917 and 61.8361
radioligand binding, competition curve point (normalized) (hCB2; M = -9.49629): 84.5147 and 77.217
radioligand binding, competition curve point (normalized) (hCB2; M = -10.2095): 91.2197 and 92.4778
radioligand binding, competition curve point (normalized) (hCB2; M = -10.9227): 85.5045 and 95.2415
radioligand binding, competition curve point (normalized) (hCB2; M = -11.6359): 108.381 and 91.8049
Ki (hCB1): 3.98 nM
radioligand binding, competition curve point (normalized) (hCB1; M = -5.643, replicate columns): -14.5136 and 0.4673
radioligand binding, competition curve point (normalized) (hCB1; M = -6.357, replicate columns): -3.19 and 6.075
radioligand binding, competition curve point (normalized) (hCB1; M = -7.07, replicate columns): 20.4147 and 9.813
radioligand binding, competition curve point (normalized) (hCB1; M = -7.783, replicate columns): 36.2041 and 27.8816
radioligand binding, competition curve point (normalized) (hCB1; M = -8.496, replicate columns): 40.1914 and 64.2523
radioligand binding, competition curve point (normalized) (hCB1; M = -9.21, replicate columns): 71.0526 and 82.243
radioligand binding, competition curve point (normalized) (hCB1; M = -9.923, replicate columns): 77.9904 and 73.053
radioligand binding, competition curve point (normalized) (hCB1; M = -10.636, replicate columns): 83.8915 and 104.439
catalepsy (Figure6c), individual animals (mice [4]; 0.2 mg/kg dose): 0.9 and 0.7 and 0.8 (2×) and 0.4
catalepsy (Figure6c), individual animals (mice [4]; 0.5 mg/kg dose): 0.6 (3×) and 0.8 and 0.9
catalepsy (Figure6c), individual animals (mice [4]; 1 mg/kg dose): 0.7 and 0.6 and 1.2 and 1.1 (2×)
catalepsy, latency to move all four paws (mice [4]; i.p., ‘1350 at 0.2 or 0.5 mg/kg, haloperidol 1.0 mg/kg): does not induce catalepsy at any tested dose up to 1 mg/kg
therapeutic window, Acetone (mice [5]; Figure 6e, vs rotarod): 10
therapeutic window, Hot Plate (mice [5]; Figure 6e, vs rotarod): 4
therapeutic window, analgesia vs catalepsy (mice [5]; Figure 6f): greater than 5
